From patent US20150148234A1, “HERBICIDE-RESISTANT SUNFLOWER PLANTS WITH MULTIPLE HERBICIDE RESISTANT ALLELES OF AHASL1 AND METHODS OF USE” (NIDERA S.A., priority 2013, published 2015)

Tests used:
[1] = system: AHAS enzyme of A122T homozygous hybrid (cmsGM40 × R733); experiment: AHAS enzyme activity assay, Set 1; assay type: biochemical, sunflower; conditions: 100 μM, Set 1 (FIG. 13)
Description: (§1) Twelve greenhouse grown sunflower plants from each of the lines depicted in Table 21 were bulked and subjected to an AHAS enzyme activity assay via the method of Singh et al. (1988) Anal. Biochem. 171:173-179. Each activity assay was repeated twice. Due to the large number of samples, the experiment was split into two sets (Table 21).
(§2) Young, actively growing leaves, from four week old plantlets, were ground in a mortar and pestle with liquid N2 and extracted with a buffer composed of 100 mM Pyruvate, 200 mM KH2PO4, 20 mM MgCl2, 2 mM thiamine pyrophosphate and […]. Plant extracts were then spun through a 10 mL Zeba™ TM desalt spin column (Pierce #89893) as per the manufacturer's recommendation. The inhibition assay was performed as described by Singh et al. (1988) Anal. Biochem. 171:173-179. Assays were conducted in a 96-well format. Fifty μl of inhibitor was added to each well containing 50 μl of soluble protein extract to give final concentrations of 0.78, 1.56, 3.125, 6.25, 12.5, 25, 50 and 100 μM imazamox or 0.78, 1.56, 3.125, 6.25, 12.5, 25, 50 and 100 μM imazapyr. Zero herbicide controls were also included for each line. Reactions were processed as outlined by Singh et al. (1988) Anal. Biochem. 171:173-179. Absorbance was measured at 530 nm. AHAS activity, expressed as the mean of the absorbance values for each treatment, was presented as a percentage of the mean of the zero-herbicide controls.

[2] = system: AHAS enzyme of A205V homozygous hybrid (IA9 × RHA426); experiment: AHAS enzyme activity assay, Set 1; assay type: biochemical, sunflower; conditions: A205V homozygous hybrids; 100 μM; Set 1 (FIG. 13)
Description: as §1, §2

[3] = system: AHAS enzyme of A122T/A205V heterozygous hybrid (IA9 × R733); experiment: AHAS enzyme activity assay, Set 1; assay type: biochemical, sunflower; conditions: 100 μM, Set 1 (FIG. 13)
Description: as §1, §2

[4] = system: sunflower entry 15-hybrid (WT × GM40 restorer, A122T hetero); experiment: field phytotoxicity trial North Dakota 2006 (Example 3); assay type: in vivo
Description: (§3) • Spray volume: 10 gallons per acre (GPA) (or 100 liters/ha) for backpack sprayer or 20 GPA (or 200 liters/ha) for tractor mounted boom • Growth Stage at Herbicide Application: 2-4 leaves • Entry 15 (WT Maintainer line) was left unsprayed in all treatment blocks.
(§4) Phytotoxicity ratings were assessed at 7 and 21 days following herbicide application.
(§5) The data was subjected to an ANOVA analysis and the means from the 3 repetitions are presented in Table 7 (phytotoxicity at 7 days post-treatment) and Table 8 (phytotoxicity at 21 days post-treatment).

[5] = system: sunflower entry 13-hybrid (GM40 CMS × GM40 restorer, A122T homo); experiment: as above; assay type: in vivo
Description: as §3, §4, §5

[6] = system: sunflower entry 9-line (GM40 restorer, A122T homo); experiment: as above; assay type: in vivo
Description: as §3, §4, §5

[7] = system: sunflower entry 1-hybrid (WT × IMI restorer, A205V hetero); experiment: as above; assay type: in vivo
Description: as §3, §4, §5

[8] = system: sunflower entry 11-hybrid (GM40 CMS × IMI restorer, A205V/A122T hetero/double); experiment: as above; assay type: in vivo
Description: as §3, §4, §5

[9] = system: sunflower entry 12-hybrid (IMI CMS × GM40 restorer, A205V/A122T hetero/double); experiment: as above; assay type: in vivo
Description: as §3, §4, §5

[10] = system: sunflower entry 7-hybrid (WT-CMS × IMI restorer, A205V hetero); experiment: as above; assay type: in vivo
Description: as §3, §4, §5

[11] = system: sunflower entry 4-line (IMI Restorer, A205V homo); experiment: as above; assay type: in vivo
Description: as §3, §4, §5

[12] = system: sunflower entry 10-hybrid (IMI CMS × GM40 restorer, A205V/A122T hetero/double); experiment: as above; assay type: in vivo
Description: as §3, §4, §5

[13] = system: sunflower entry 3-hybrid (WT × IMI restorer, A205V hetero); experiment: as above; assay type: in vivo
Description: as §3, §4, §5

[14] = system: sunflower entry 8-hybrid (WT × GM40 restorer, A122T hetero); experiment: as above; assay type: in vivo
Description: as §3, §4, §5

[15] = system: sunflower entry 16-hybrid (WT × GM40 restorer, A122T hetero); experiment: as above; assay type: in vivo
Description: as §3, §4, §5

[16] = system: sunflower entry 14-hybrid (GM40 CMS × GM40 restorer, A122T homo); experiment: as above; assay type: in vivo
Description: as §3, §4, §5

[17] = system: sunflower entry 6-hybrid (IMI CMS × IMI restorer, A205V homo); experiment: as above; assay type: in vivo
Description: as §3, §4, §5

[18] = 7 DAT, 50 g ai/ha imazamox + 0.25% NIS
[19] = 7 DAT, 100 g ai/ha imazamox + 0.25% NIS
[20] = 7 DAT, 200 g ai/ha imazamox + 0.25% NIS
[21] = 21 DAT, 50 g ai/ha imazamox + 0.25% NIS
[22] = 21 DAT, 100 g ai/ha imazamox + 0.25% NIS
[23] = 21 DAT, 200 g ai/ha imazamox + 0.25% NIS
[24] = 7 DAT, 160 g ai/ha imazapyr + 0.25% NIS
[25] = 21 DAT, 160 g ai/ha imazapyr + 0.25% NIS

COCc1cnc(C2=NC(C)(C(C)C)C(=O)N2)c(C(=O)O)c1 (stereo not shown) [imazamox]
AHAS activity, % of untreated control [1]: 69% | AHAS activity, % of untreated control [2]: 36% | AHAS activity, % of untreated control [3]: 59% | Phytotoxicity Rating (% Crop Injury) [4, 18]: 10.0% | Phytotoxicity Rating (% Crop Injury) [4, 19]: 11.7% | Phytotoxicity Rating (% Crop Injury) [4, 20]: 16.7% | Phytotoxicity Rating (% Crop Injury) [4, 21]: 6.7% | Phytotoxicity Rating (% Crop Injury) [4, 22]: 11.7% | Phytotoxicity Rating (% Crop Injury) [4, 23]: 30.0% | Phytotoxicity Rating (% Crop Injury) [5, 18]: 3.3% | Phytotoxicity Rating (% Crop Injury) [5, 19]: 5.0% | Phytotoxicity Rating (% Crop Injury) [5, 20]: 10.0% | Phytotoxicity Rating (% Crop Injury) [5, 21]: 0.0% | Phytotoxicity Rating (% Crop Injury) [5, 22]: 1.7% | Phytotoxicity Rating (% Crop Injury) [5, 23]: 3.3% | Phytotoxicity Rating (% Crop Injury) [6, 18]: 1.7% | Phytotoxicity Rating (% Crop Injury) [6, 19]: 5.0% | Phytotoxicity Rating (% Crop Injury) [6, 20]: 10.0% | Phytotoxicity Rating (% Crop Injury) [6, 21]: 0.0% | Phytotoxicity Rating (% Crop Injury) [6, 22]: 0.0% | Phytotoxicity Rating (% Crop Injury) [6, 23]: 3.3% | Phytotoxicity Rating (% Crop Injury) [7, 18]: 8.3% | Phytotoxicity Rating (% Crop Injury) [7, 19]: 35.0% | Phytotoxicity Rating (% Crop Injury) [7, 20]: 48.3% | Phytotoxicity Rating (% Crop Injury) [7, 21]: 6.7% | Phytotoxicity Rating (% Crop Injury) [7, 22]: 25.0% | Phytotoxicity Rating (% Crop Injury) [7, 23]: 73.3% | Phytotoxicity Rating (% Crop Injury) [8, 18]: 0.0% | Phytotoxicity Rating (% Crop Injury) [8, 19]: 3.3% | Phytotoxicity Rating (% Crop Injury) [8, 20]: 11.7% | Phytotoxicity Rating (% Crop Injury) [8, 21]: 0.0% | Phytotoxicity Rating (% Crop Injury) [8, 22]: 0.0% | Phytotoxicity Rating (% Crop Injury) [8, 23]: 3.3% | Phytotoxicity Rating (% Crop Injury) [9, 18]: 10.0% | Phytotoxicity Rating (% Crop Injury) [9, 19]: 10.0% | Phytotoxicity Rating (% Crop Injury) [9, 20]: 11.7% | Phytotoxicity Rating (% Crop Injury) [9, 21]: 3.3% | Phytotoxicity Rating (% Crop Injury) [9, 22]: 3.3% | Phytotoxicity Rating (% Crop Injury) [9, 23]: 3.3% | Phytotoxicity Rating (% Crop Injury) [10, 18]: 13.3% | Phytotoxicity Rating (% Crop Injury) [10, 19]: 43.3% | Phytotoxicity Rating (% Crop Injury) [10, 20]: 56.7% | Phytotoxicity Rating (% Crop Injury) [10, 21]: 3.3% | Phytotoxicity Rating (% Crop Injury) [10, 22]: 40.0% | Phytotoxicity Rating (% Crop Injury) [10, 23]: 78.3% | Phytotoxicity Rating (% Crop Injury) [11, 18]: 6.7% | Phytotoxicity Rating (% Crop Injury) [11, 19]: 6.7% | Phytotoxicity Rating (% Crop Injury) [11, 20]: 18.3% | Phytotoxicity Rating (% Crop Injury) [11, 21]: 5.0% | Phytotoxicity Rating (% Crop Injury) [11, 22]: 6.7% | Phytotoxicity Rating (% Crop Injury) [11, 23]: 15.0% | Phytotoxicity Rating (% Crop Injury) [12, 18]: 3.3% | Phytotoxicity Rating (% Crop Injury) [12, 19]: 3.3% | Phytotoxicity Rating (% Crop Injury) [12, 20]: 10.0% | Phytotoxicity Rating (% Crop Injury) [12, 21]: 0.0% | Phytotoxicity Rating (% Crop Injury) [12, 22]: 0.0% | Phytotoxicity Rating (% Crop Injury) [12, 23]: 1.7% | Phytotoxicity Rating (% Crop Injury) [13, 18]: 11.7% | Phytotoxicity Rating (% Crop Injury) [13, 19]: 46.7% | Phytotoxicity Rating (% Crop Injury) [13, 20]: 60.0% | Phytotoxicity Rating (% Crop Injury) [13, 21]: 11.7% | Phytotoxicity Rating (% Crop Injury) [13, 22]: 46.7% | Phytotoxicity Rating (% Crop Injury) [13, 23]: 76.7% | Phytotoxicity Rating (% Crop Injury) [14, 18]: 13.3% | Phytotoxicity Rating (% Crop Injury) [14, 19]: 13.3% | Phytotoxicity Rating (% Crop Injury) [14, 20]: 25.0% | Phytotoxicity Rating (% Crop Injury) [14, 21]: 6.7% | Phytotoxicity Rating (% Crop Injury) [14, 22]: 11.7% | Phytotoxicity Rating (% Crop Injury) [14, 23]: 28.3% | Phytotoxicity Rating (% Crop Injury) [15, 18]: 10.0% | Phytotoxicity Rating (% Crop Injury) [15, 19]: 15.0% | Phytotoxicity Rating (% Crop Injury) [15, 20]: 23.3% | Phytotoxicity Rating (% Crop Injury) [15, 21]: 6.7% | Phytotoxicity Rating (% Crop Injury) [15, 22]: 16.7% | Phytotoxicity Rating (% Crop Injury) [15, 23]: 31.7% | Phytotoxicity Rating (% Crop Injury) [16, 18]: 5.0% | Phytotoxicity Rating (% Crop Injury) [16, 19]: 6.7% | Phytotoxicity Rating (% Crop Injury) [16, 20]: 11.7% | Phytotoxicity Rating (% Crop Injury) [16, 21]: 0.0% | Phytotoxicity Rating (% Crop Injury) [16, 22]: 3.3% | Phytotoxicity Rating (% Crop Injury) [16, 23]: 5.0% | Phytotoxicity Rating (% Crop Injury) [17, 18]: 5.0% | Phytotoxicity Rating (% Crop Injury) [17, 19]: 8.3% | Phytotoxicity Rating (% Crop Injury) [17, 20]: 26.7% | Phytotoxicity Rating (% Crop Injury) [17, 21]: 0.0% | Phytotoxicity Rating (% Crop Injury) [17, 22]: 3.3% | Phytotoxicity Rating (% Crop Injury) [17, 23]: 21.7%

CC(C)C1(C)N=C(c2ncccc2C(=O)O)NC1=O (stereo not shown) [imazapyr]
AHAS activity, % of untreated control [1]: 64% | AHAS activity, % of untreated control [2]: 42% | AHAS activity, % of untreated control [3]: 60% | Phytotoxicity Rating (% Crop Injury) [4, 24]: 8.3% | Phytotoxicity Rating (% Crop Injury) [4, 25]: 21.7% | Phytotoxicity Rating (% Crop Injury) [5, 24]: 5.0% | Phytotoxicity Rating (% Crop Injury) [5, 25]: 1.7% | Phytotoxicity Rating (% Crop Injury) [6, 24]: 8.3% | Phytotoxicity Rating (% Crop Injury) [6, 25]: 5.0% | Phytotoxicity Rating (% Crop Injury) [7, 24]: 16.7% | Phytotoxicity Rating (% Crop Injury) [7, 25]: 20.0% | Phytotoxicity Rating (% Crop Injury) [8, 24]: 3.3% | Phytotoxicity Rating (% Crop Injury) [8, 25]: 0.0% | Phytotoxicity Rating (% Crop Injury) [9, 24]: 5.0% | Phytotoxicity Rating (% Crop Injury) [9, 25]: 1.7% | Phytotoxicity Rating (% Crop Injury) [10, 24]: 21.7% | Phytotoxicity Rating (% Crop Injury) [10, 25]: 36.7% | Phytotoxicity Rating (% Crop Injury) [11, 24]: 11.7% | Phytotoxicity Rating (% Crop Injury) [11, 25]: 6.7% | Phytotoxicity Rating (% Crop Injury) [12, 24]: 3.3% | Phytotoxicity Rating (% Crop Injury) [12, 25]: 0.0% | Phytotoxicity Rating (% Crop Injury) [13, 24]: 35.0% | Phytotoxicity Rating (% Crop Injury) [13, 25]: 43.3% | Phytotoxicity Rating (% Crop Injury) [14, 24]: 13.3% | Phytotoxicity Rating (% Crop Injury) [14, 25]: 11.7% | Phytotoxicity Rating (% Crop Injury) [15, 24]: 10.0% | Phytotoxicity Rating (% Crop Injury) [15, 25]: 23.3% | Phytotoxicity Rating (% Crop Injury) [16, 24]: 8.3% | Phytotoxicity Rating (% Crop Injury) [16, 25]: 3.3% | Phytotoxicity Rating (% Crop Injury) [17, 24]: 8.3% | Phytotoxicity Rating (% Crop Injury) [17, 25]: 3.3%
